Several values for one entry are separate records, joined by “and”; a condition that tells them apart may be missing. Equal entries are not always repeated.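 Grown in 96-well plates, cells were treated for 48 hours with each compound at five concentrations. Insufficient inhibition: endpoint recorded as highest concentration tested. At the GI50, growth is halved. TGI: total growth inhibition.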
Tests used:
Experiment in all cases: NCI tumour cell line growth inhibition, 48 h
OVCAR-5 ovarian = system: OVCAR-5 ovarian
SN12C renal = system: SN12C renal
PC-3 prostate = system: PC-3 prostate
OVCAR-8 ovarian = system: OVCAR-8 ovarian
HCC-2998 colon = system: HCC-2998 colon
MDA-MB-435 = system: MDA-MB-435
NCI-H522 lung = system: NCI-H522 lung
RXF 393 renal = system: RXF 393 renal
A498 renal = system: A498 renal
LOX IMVI melanoma = system: LOX IMVI melanoma

| Structure (SMILES) | GI50 (OVCAR-5 ovarian) | TGI (OVCAR-5 ovarian) | GI50 (SN12C renal) | TGI (SN12C renal) | GI50 (PC-3 prostate) | TGI (PC-3 prostate) | GI50 (OVCAR-8 ovarian) | TGI (OVCAR-8 ovarian) | GI50 (HCC-2998 colon) | TGI (HCC-2998 colon) | GI50 (MDA-MB-435) | TGI (MDA-MB-435) | GI50 (NCI-H522 lung) | TGI (NCI-H522 lung) | GI50 (RXF 393 renal) | TGI (RXF 393 renal) | GI50 (A498 renal) | TGI (A498 renal) | GI50 (LOX IMVI melanoma) | TGI (LOX IMVI melanoma) |
| --- | --- | --- | --- | --- | --- | --- | --- | --- | --- | --- | --- | --- | --- | --- | --- | --- | --- | --- | --- | --- |
| C[C@@]12CCC[C@@](C)(C(=O)O)C1CC[C@@]13CC(=O)[C@@](CO)(CCC12)C3 (some centres not stated) | > 100000 nM | > 100000 nM | > 100000 nM | > 100000 nM | > 100000 nM | > 100000 nM | > 100000 nM | > 100000 nM | > 100000 nM | > 100000 nM | > 100000 nM | > 100000 nM | > 100000 nM | > 100000 nM | > 100000 nM | > 100000 nM | > 100000 nM | > 100000 nM | > 100000 nM | > 100000 nM |
| Nc1nc(Nc2ccc3c(c2)CCC(N2CCCC2)CC3)nn1-c1cc2c(nn1)-c1ccccc1CCC2 (configuration not stated) | 1390 nM | 2760 nM | 378 nM | 1810 nM | 629 nM | 2140 nM | 1140 nM | 2850 nM | 1550 nM | 2970 nM | 1320 nM | 2740 nM | 1710 nM | 3270 nM | 631 nM | 1870 nM | 274 nM | 1240 nM | 1340 nM | 2690 nM |
| Nc1c(O)c(S(=O)(=O)O)c(O)c2c1C(=O)c1ccccc1C2=O | 3220 nM | 32500 nM | 3290 nM | 11600 nM | 2320 nM | 7870 nM | 2980 nM | 13400 nM | 2840 nM | 32800 nM | 3330 nM | > 100000 nM | 2680 nM | 9170 nM | 3370 nM | > 100000 nM | 2330 nM | 7530 nM | 3080 nM | 12300 nM |
| Oc1ccc(-c2nc3ccc4[nH]ncc4c3c3c2CCCC3)c2cccnc12 | 1160 nM | 14700 nM | 206 nM | 6790 nM | 389 nM | 6560 nM | 148 nM | 10800 nM | 319 nM | 5450 nM | 148 nM | 2770 nM | 119 nM | 5200 nM | 266 nM | 2440 nM | 779 nM | 2190 nM | 203 nM | 4010 nM |
| COc1cc(/C=C/C(=O)c2cc(OC)c(OC)c(OC)c2)cc(OC)c1OC | 5680 nM | 20100 nM | 4020 nM | 20800 nM | 5320 nM | 27800 nM | 3490 nM | > 100000 nM | 2950 nM | 6650 nM | 2280 nM | 8110 nM | 3090 nM | 12100 nM | 2810 nM | 11400 nM | 2470 nM | 9470 nM | 2740 nM | 10900 nM |
| C=C1C(=O)O[C@H]2[C@H]1CC/C(COC(=O)C(=O)c1cn(C)c3ccc(OC)cc13)=C\CC[C@@]1(C)O[C@@H]21 | 6120 nM | 13600 nM | 6100 nM | 12800 nM | 5890 nM | 10800 nM | 6760 nM | 20400 nM | 5140 nM | 9720 nM | 3830 nM | 9490 nM | 5020 nM | 9160 nM | 2020 nM | 3950 nM | 6770 nM | 10100 nM | 1570 nM | 2620 nM |
| O=C1C(=O)c2c(nc3ncccn23)-c2ccccc21 | 397 nM | 852 nM | 173 nM | 325 nM | 320 nM | 1340 nM | 306 nM | 1270 nM | 408 nM | 935 nM | 114 nM | 254 nM | 232 nM | 753 nM | 497 nM | 967 nM | 484 nM | 1280 nM | 150 nM | 339 nM |
| COc1ccc(Cn2cc(Cn3c(=O)c(-c4nc5ccccc5[nH]4)cc4ccccc43)nn2)c(OC)c1OC | 201 nM and 329 nM | 1230 nM and 1530 nM | 217 nM and 426 nM | 50000 nM and > 100000 nM | 313 nM | > 100000 nM | 213 nM and 486 nM |  | 174 nM and 291 nM | 1200 nM and 2070 nM | 82.1 nM and 45.3 nM | 186 nM and 170 nM | 148 nM and 176 nM |  | 129 nM | 490 nM | 118 nM | 607 nM | 254 nM and 112 nM |  |
